Data set [1] has as its system Blumeria graminis f.sp. hordei. The data set can be described thus: Blumeria graminis test (barley) / protective. The class given is in vivo. The conditions noted are these: 500 ppm active ingredient, protective spray on young barley plants, evaluation 7 days after inoculation; 0% = control, 100% = no infection. Here is the method: Blumeria graminis Test (Barley)/Protective
(§1) • Solvent: 49 parts by weight of N,N-dimethylacetamide • Emulsifier: 1 part by weight of alkylaryl polyglycol ether
To produce an appropriate active ingredient formulation, 1 part by weight of active ingredient is mixed with the specified amounts of solvent and emulsifier, and the concentrate is diluted with water to the desired concentration. To test for protective activity, young plants are sprayed with the formulation of active ingredient at the stated application rate. After the spray coating has dried on, the plants are dusted with spores of Blumeria graminis f.sp. hordei. The plants are placed in a greenhouse at a temperature of about 18° C. and a relative air humidity of about 80% to promote the development of mildew pustules. Evaluation follows 7 days after the inoculation. 0% means an efficacy which corresponds to that of the control, whereas an efficacy of 100% means that no infection is observed.

Data set [2] in a line: logP by reversed-phase HPLC (EEC Directive 79/831 Annex V.A8). Format: physicochemical. The note with it: method [a]: LC-MS, acidic range pH 2.7, 0.1% aqueous formic acid / acetonitrile, linear gradient 10% to 95% acetonitrile. The procedure:
The logP values were measured in accordance with EEC Directive 79/831 Annex V.A8 by HPLC (High Performance Liquid Chromatography) using reversed-phase columns (C 18) by the following methods:
[a] The LC-MS determination in the acidic range is effected at pH 2.7 with 0.1% aqueous formic acid and acetonitrile (contains 0.1% formic acid) as eluents; linear gradient from 10% acetonitrile to 95% acetonitrile.

In another data set the test system is Leptosphaeria nodorum. Nature of the data set: Leptosphaeria nodorum test (wheat) / protective. The note with it: 500 ppm active ingredient, protective spray on young wheat plants, evaluation 8 days after inoculation; 0% = control, 100% = no infection. Format: in vivo. Here is the method: Leptosphaeria nodorum Test (Wheat)/Protective
as §1
To produce an appropriate active ingredient formulation, I part by weight of active ingredient is mixed with the specified amounts of solvent and emulsifier, and the concentrate is diluted with water to the desired concentration. To test for protective activity, young plants are sprayed with the formulation of active ingredient at the stated application rate. After the spray coating has dried on, the plants are sprayed with spores with a spore suspension of Leptosphaeria nodorum. The plants remain in an incubation cabin at 20° C. and 100% relative air humidity for 48 hours. The plants are placed in a greenhouse at a temperature of about 22° C. and a relative air humidity of about 80%. Evaluation follows 8 days after the inoculation. 0% means an efficacy which corresponds to that of the control, whereas an efficacy of 100% means that no infection is observed.

For the next data set, the system named is Sphaerotheca fuliginea. The data set can be described thus: Sphaerotheca test (cucumber) / protective. The class given is in vivo. The note with it: 500 ppm active ingredient, protective spray on young cucumber plants, evaluation 7 days after inoculation; 0% = control, 100% = no infection. Here is the method:
Sphaerotheca Test (Cucumber)/Protective
(§2) • Solvent: 49 parts by weight of N,N-dimethylformamide • Emulsifier: 1 part by weight of alkylaryl polyglycol ether
To produce an appropriate active ingredient formulation, 1 part by weight of active ingredient is mixed with the specified amounts of solvent and emulsifier, and the concentrate is diluted with water to the desired concentration. To test for protective activity, young cucumber plants are sprayed with the formulation of active ingredient at the stated application rate. 1 day after the treatment, the plants are inoculated with a spore suspension of Sphaerotheca fuliginea. The plants are then placed in a greenhouse at 70% relative air humidity and a temperature of 23° C. Evaluation follows 7 days after the inoculation. 0% means an efficacy which corresponds to that of the control, whereas an efficacy of 100% means that no infection is observed.

Another data set deals with Alternaria solani. Nature of the data set: Alternaria test (tomato) / protective. Format: in vivo. The note with it: 500 ppm active ingredient, protective spray on young tomato plants, evaluation 7 days after inoculation; 0% = control, 100% = no infection. Here is the method: Alternaria Test (Tomato)/Protective
as §2
To produce an appropriate active ingredient formulation, 1 part by weight of active ingredient is mixed with the specified amounts of solvent and emulsifier, and the concentrate is diluted with water to the desired concentration. To test for protective activity, young tomato plants are sprayed with the active ingredient formulation at the stated application rate. One day after the treatment, the plants are inoculated with a spore suspension of Alternaria solani and are then left to stand at 100% relative humidity and 22° C. for 24 h. Subsequently, the plants are left to stand at 96% relative air humidity and a temperature of 20° C. Evaluation follows 7 days after the […]. 0% means an efficacy which corresponds to that of the control, whereas an efficacy of 100% means that no infection is observed.

SMILES strings stand for the structures.

The chromatographic logP is lipophilicity estimated from chromatographic retention. Read a low chromatographic logP as lower lipophilicity. As for `CC(CF)(CF)C(O)(CSc1ccc(Br)cc1)c1cncs1` (stereo not shown) [Compound 3], the efficacy (in data set [1]; in the data set with Leptosphaeria nodorum) was 100% throughout. The same molecule came in with a chromatographic logP in data set [2] (reversed-phase C18 HPLC column) of 3.27.

In the case of `CC(C)(C)C(O)(CSc1ccc(C(F)(F)F)cc1)c1cncs1` (stereo not shown) [Compound 57], the efficacy is 80% in the data set with Sphaerotheca fuliginea, 80% in data set [1], 100% with Alternaria solani and 90% in the data set with Leptosphaeria nodorum. Besides, in data set [2] (C18 reversed phase), the logP result was “log p 3.76^[a]”.

Turning to `CC(C)(C)C(O)(CSc1ccc(Br)cc1)c1cncs1` (stereo not shown) [Compound 1, 1-[(4-bromophenyl)sulphanyl]-3,3-dimethyl-2-(1,3-thiazol-5-yl)butan-2-ol], the results for the efficacy (in data set [1]; with Leptosphaeria nodorum) were 89% and 92%, respectively.

These data come from patent publication US8445691B2, “Heterocyclic thiosubstituted alkanol derivatives” (Bayer CropScience AG, priority 2010, dated 2013).
